Data set [1] concerns HEK293T cells carrying the ATF4 luciferase reporter. Nature of the data set: ATF4-Luc assay (in vitro model of vanishing white matter disease). Type of data set: cell-based, human. The conditions noted are these: Homo sapiens, HEK-293T; HEK293T cells with ATF4 5'-UTR firefly luciferase reporter; 1 μg/mL tunicamycin; 7 hours; One Glo luminescence. On the procedure: In order to test exemplary compounds of the invention in a cellular context, a stable VWMD cell line was first constructed. The ATF4 reporter was prepared by fusing the human full-length ATF4 5′-UTR (NCBI Accession No. BC022088.2) in front of the firefly luciferase (FLuc) coding sequence lacking the initiator methionine as described in Sidrauski et al (eLife 2013). The construct was used to produce recombinant retroviruses using standard methods and the resulting viral supernatant was used to transduce HEK293T cells, which were then subsequently selected with puromycin to generate a stable cell line.
HEK293T cells carrying the ATF4 luciferase reporter were plated on polylysine coated 384-well plates (Greiner Bio-one) at 30,000 cells per well. Cells were treated the next day with 1 μg/mL tunicamycin and 200 nM of a compound of Formula (I) for 7 hours. Luminescence was measured using One Glo (Promega) as specified by the manufacturer. Cells were maintained in DMEM with L-glutamine supplemented with 10% heat-inactivated FBS (Gibco) and Antibiotic-Antimycotic solution (Gibco).
Table 2 below summarizes the EC50 data obtained using the ATF4-Luc assay for exemplary compounds of the invention.
For orientation: Reporter assays use an easily measured gene product as a stand-in for the process of interest.

The source of these data is US20200347033A1, “MODULATORS OF THE INTEGRATED STRESS PATHWAY” (Calico Life Sciences LLC, priority 2017, published 2020).

A word on the melting point: it is the temperature of the solid-liquid transition. By EC50 is commonly meant the concentration that produces a half-maximal response. In turn, `O=C(COc1ccc(Cl)c(F)c1)N[C@H]1CC[C@H](N2CCN(c3ccc(C(F)(F)F)cn3)C2=O)CC1` [Compound 132, 2-(4-chloro-3-fluorophenoxy)-N-[(1r,4r)-4-{2-oxo-3-[5-(trifluoromethyl)pyridin-2-yl]imidazolidin-1-yl}cyclohexyl]acetamide] came in with a melting point of 232 °C. The EC50 in data set [1] is less than 50 nM.

As for `O=C(COc1ccc(Cl)c(F)c1)NC12CC(N3CC(c4ccc(Cl)c(F)c4)CC3=O)(C1)C2` (stereo not drawn) [Compound 159, 2-(4-chloro-3-fluorophenoxy)-N-{3-[4-(4-chloro-3-fluorophenyl)-2-oxopyrrolidin-1-yl]bicyclo[1.1.1]pentan-1-yl}acetamide], in data set [1], the EC50 was less than 50 nM. The same measure, in the same setting: in the case of `O=C(COc1ccc(Cl)c(F)c1)NC12CC(n3ccn(-c4ccc(Cl)cc4)c3=O)(C1)C2` [Compound 160, 2-(4-chloro-3-fluorophenoxy)-N-{3-[3-(4-chlorophenyl)-2-oxo-2,3-dihydro-1H-imidazol-1-yl]bicyclo[1.1.1]pentan-1-yl}acetamide] it was less than 50 nM; in that of `O=C(COc1ccc(Cl)c(F)c1)NC12CCC(N3CC(c4ccc(Cl)cc4)OC3=O)(CC1)CC2O` (stereo not drawn) [Compound 162, 2-(4-chloro-3-fluorophenoxy)-N-{4-[5-(4-chlorophenyl)-2-oxo-1,3-oxazolidin-3-yl]-2-hydroxybicyclo[2.2.2]octan-1-yl}acetamide], 50 to 250 nM; in that of `O=C(COc1ccc(Cl)c(F)c1)NC12CCC(N3CC(c4ccc(Cl)c(F)c4)CC3=O)(CC1)C[C@@H]2O` (stereo partly drawn) [Compound 163, 2-(4-chloro-3-fluorophenoxy)-N-{(2S)-4-[4-(4-chloro-3-fluorophenyl)-2-oxopyrrolidin-1-yl]-2-hydroxybicyclo[2.2.2]octan-1-yl}acetamide], less than 50 nM.

Consider `CC1(c2ccc(Cl)cc2)CN=C(C23CC(NC(=O)COc4ccc(Cl)c(F)c4)(C2)C3)O1` (stereo not drawn) [Compound 164, 2-(4-chloro-3-fluorophenoxy)-N-{3-[5-(4-chlorophenyl)-5-methyl-4,5-dihydro-1,3-oxazol-2-yl]bicyclo[1.1.1]pentan-1-yl}acetamide], for which, in data set [1], the EC50 lay in the range of 250 to 1000 nM.

Take `O=C(COc1ccc(Cl)c(F)c1)NC12CC(N3CC(c4ccc(Cl)c(F)c4)=CC3=O)(C1)C2` [Compound 165, 2-(4-chloro-3-fluorophenoxy)-N-{3-[4-(4-chloro-3-fluorophenyl)-2-oxo-2,5-dihydro-1H-pyrrol-1-yl]bicyclo[1.1.1]pentan-1-yl}acetamide]: the EC50 in data set [1] was less than 50 nM. Still for that read-out and setting: in the case of `O=C(NC12CC(N3CC(c4ccc(Cl)c(F)c4)OC3=O)(C1)C2)c1cnc(C(F)F)cn1` (stereo not drawn) [Compound 166, N-{3-[5-(4-chloro-3-fluorophenyl)-2-oxo-1,3-oxazolidin-3-yl]bicyclo[1.1.1]pentan-1-yl}-5-(difluoromethyl)pyrazine-2-carboxamide] it was more than 2000 nM. Take `O=C(NC12CC(N3CC(c4ccc(Cl)c(F)c4)OC3=O)(C1)C2)c1cc(C(F)F)no1` (stereo not drawn) [Compound 167, N-{3-[5-(4-chloro-3-fluorophenyl)-2-oxo-1,3-oxazolidin-3-yl]bicyclo[1.1.1]pentan-1-yl}-3-(difluoromethyl)-1,2-oxazole-5-carboxamide]: in data set [1], the EC50 was more than 2000 nM.

For the compound `O=C(COc1ccc(Cl)c(F)c1)NC12CC(N3Cc4cc5ccccc5cc4C3=O)(C1)C2` [Compound 168, 2-(4-chloro-3-fluorophenoxy)-N-[3-(1-oxo-1,3-dihydro-2H-benzo[f]isoindol-2-yl)bicyclo[1.1.1]pentan-1-yl]acetamide], in data set [1], the EC50 was 250 to 1000 nM. Still for that read-out and setting: in the case of `O=C(COc1ccc(Cl)c(F)c1)NC12CC(N3CC(c4ccc(Cl)cc4)COC3=O)(C1)C2` (stereo not drawn) [Compound 169, 2-(4-chloro-3-fluorophenoxy)-N-{3-[5-(4-chlorophenyl)-2-oxo-1,3-oxazinan-3-yl]bicyclo[1.1.1]pentan-1-yl}acetamide] it was 250 to 1000 nM.
